The values below come from US8835428B2, “Diacylglycerol acyltransferase inhibitors” (Piramal Enterprises Limited, priority 2008, dated 2014).

The first assay has as its target T1, hDGAT1 (Homo sapiens, UniProt O75907).
T1 construct: host or cells: Sf9 insect cells (baculovirus); microsomal preparation
T1 sequence (O75907 1-488): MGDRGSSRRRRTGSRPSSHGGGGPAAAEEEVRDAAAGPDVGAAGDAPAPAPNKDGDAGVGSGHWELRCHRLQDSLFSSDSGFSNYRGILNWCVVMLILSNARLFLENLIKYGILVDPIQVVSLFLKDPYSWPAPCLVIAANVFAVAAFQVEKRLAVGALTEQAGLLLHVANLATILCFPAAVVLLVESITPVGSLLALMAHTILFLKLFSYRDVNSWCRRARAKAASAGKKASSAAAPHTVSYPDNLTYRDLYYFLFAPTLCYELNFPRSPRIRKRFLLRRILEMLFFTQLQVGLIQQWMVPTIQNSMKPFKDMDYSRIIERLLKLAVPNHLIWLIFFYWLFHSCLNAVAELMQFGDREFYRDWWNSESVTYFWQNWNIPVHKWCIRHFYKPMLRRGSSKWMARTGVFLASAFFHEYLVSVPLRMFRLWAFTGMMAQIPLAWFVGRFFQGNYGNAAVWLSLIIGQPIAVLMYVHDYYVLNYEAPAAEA
Description: In-vitro DGAT1 assay (hDGAT1 microsomes from Sf9 cells, 14C oleoyl CoA, triglyceride formation). Format: biochemical. To be noted: At 1 μM. An outline of the steps:
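Compounds tested in duplicate at 10, 5 and 1 μM for 10 min at 37 °C. Reaction: Sf9-expressed hDGAT1 microsomes (2.5–10 μg), [14C]oleoyl-CoA plus 409.5–1638 μM dioleoylglycerol, pH 7.4 Tris-HCl with fatty-acid-free BSA. Radiolabelled triglyceride extracted into heptane and scintillation-counted.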
Usually inhibition stands for the share of the control response that was lost under treatment. A lower inhibition goes with a response near the control. As for `CC(C)[C@@H](NC(=O)c1cc(-c2ccc(NS(=O)(=O)c3ccc(C(F)(F)F)cc3)cc2)no1)C(=O)O` [Example 319, (R)-3-methyl-2-(3-(4-(4-(trifluoromethyl)phenylsulfonamido)phenyl)isoxazole-5-carboxamido)butanoic acid], the inhibition at 1 µM was 0 to 50%.
Still for that read-out and setting: the result for `CC(C)[C@H](NC(=O)c1cc(-c2ccc(NC(=O)Nc3ccc(F)cc3C(F)(F)F)cc2)no1)C(=O)O` [Example 213, (S)-2-(3-(4-(3-(4-fluoro-2-(trifluoromethyl)phenyl)ureido)phenyl)isoxazole-5-carboxamido)-3-methylbutanoic acid] reads 50 to 75%; that for `CC(C)[C@H](NC(=O)c1cc(-c2ccc(NC(=O)Nc3ccc(Cl)cc3F)cc2)no1)C(=O)O` [Example 193, (S)-2-(3-(4-(3-(4-chloro-2-fluorophenyl)ureido)phenyl)isoxazole-5-carboxamido)-3-methylbutanoic acid], 75 to 100%.
The same measure, in the same setting: under `CSc1ccc(NC(=O)Nc2ccc(-c3cc(C(=O)N[C@H](C(=O)O)C(C)C)on3)cc2)cc1` [Example 197, (S)-3-methyl-2-(3-(4-(3-(4-(methylthio)phenyl)ureido)phenyl)isoxazole-5-carboxamido)butanoic acid] stands 75 to 100%.
`COC(=O)[C@H](NC(=O)c1cc(-c2ccc(NS(=O)(=O)c3c(F)cccc3F)cc2)no1)C(C)C` [Example 316, (R)-Methyl 2-(3-(4-(2,6-difluorophenylsulfonamido)phenyl)isoxazole-5-carboxamido)-3-methylbutanoate]: the inhibition at 1 µM lay in the range of 0 to 50%.
Same read-out and setting: the result for `Cc1ccc(Cl)c(NC(=O)Nc2ccc(-c3cc(C(=O)N[C@H](C(=O)O)C(C)C)on3)cc2)c1` [Example 189, (S)-2-(3-(4-(3-(2-chloro-5-methylphenyl)ureido)phenyl)isoxazole-5-carboxamido)-3-methylbutanoic acid] reads 75 to 100%.
`CC(C)C(NC(=O)c1cc(-c2ccc(OCc3ccc(F)cc3F)cc2)no1)C(=O)O` (stereo not drawn) [Example 332]: the “% inhibition of hDGAT1” value is reported as “+ (>0% Inhibition ≦50)”.
Take `C=C(NC(=O)c1cc(-c2ccc(NC(=O)Nc3ccc(C)cc3)cc2)no1)C(=O)O` [Example 304, 2-(3-(4-(3-p-tolylureido)phenyl)isoxazole-5-carboxamido)acrylic acid]: the inhibition at 1 µM is 50 to 75%.
Still for that read-out and setting: under `COC(=O)[C@H](NC(=O)c1cc(-c2ccc(NC(=O)Nc3ccc(C#N)cc3)cc2)no1)C(C)C` [Example 218, (R)-methyl 2-(3-(4-(3-(4-cyanophenyl)ureido)phenyl)isoxazole-5-carboxamido)-3-methylbutanoate] stands 0 to 50%; under `CC(C)[C@H](NC(=O)c1cc(-c2ccc(NC(=O)Nc3ccc(C(F)(F)F)cc3Cl)cc2)no1)C(=O)O` [Example 232, (S)-2-(3-(4-(3-(2-Chloro-4-(trifluoromethyl)phenyl)ureido)phenyl)isoxazole-5-carboxamido)-3-methylbutanoic acid], 75 to 100%.

Staying with this assay, now noted: At 5 μM.
In the case of `CC(C)[C@H](NC(=O)c1cc(-c2ccc(NC(=S)Nc3ccccc3F)cc2)no1)C(=O)O` [Example 270, (S)-2-(3-(4-(3-(2-fluorophenyl)thioureido)phenyl)isoxazole-5-carboxamido)-3-methylbutanoic acid], the inhibition at 5 µM was 50 to 75%.
Compound `Cc1cc(NC(=O)Nc2ccccc2F)ccc1-c1cc(C(=O)NC(C(=O)O)C(C)C)on1` (stereo not drawn) [Example 136, 2-(3-(4-(3-(2-Fluorophenyl)ureido)-2-methylphenyl)isoxazole-5-carboxamido)-3-methylbutanoic acid] yielded an inhibition at 5 µM of 75 to 100%.
Same read-out and setting: the result for `COC(=O)C(NC(=O)c1cc(-c2ccc(NC(=O)Nc3ccccc3F)cc2C)no1)C(C)C` (stereo not drawn) [Example 135, Methyl 2-(3-(4-(3-(2-fluorophenyl)ureido)-2-methylphenyl)isoxazole-5-carboxamido)-3-methylbutanoate] reads 0 to 50%.
On the same count and under the same terms, under `COC(=O)[C@@H](NC(=O)c1nc(-c2ccc(NC(=S)NCc3ccccc3)cc2)no1)C(C)C` [Example 356, (S)-methyl 2-(3-(4-(3-benzylthioureido)phenyl)-1,2,4-oxadiazole-5-carboxamido)-3-methylbutanoate] stands 50 to 75%.
Still for that read-out and setting: the result for `COC(=O)[C@@H](NC(=O)c1nc(-c2ccc(NC(=O)Nc3ccccc3)cc2)no1)C(C)C` [Example 351, (S)-Methyl 3-methyl-2-(3-(4-(3-phenylureido)phenyl)-1,2,4-oxadiazole-5-carboxamido)butanoate] reads 0 to 50%; that for `C=C(NC(=O)c1cc(-c2ccc(NC(=O)Nc3ccccc3F)cc2)no1)C(=O)OC` [Example 301, Methyl 2-(3-(4-(3-(2-fluorophenyl)ureido)phenyl)isoxazole-5-carboxamido)acrylate], 50 to 75%.

Still in this assay, the particulars now being: At 10 μM.
For `CC(C)[C@H](NC(=O)c1cc(-c2ccc(NC(=O)Nc3ccc(F)cc3)c(F)c2)no1)C(=O)O` [Example 97], the “% inhibition of hDGAT1” value is “+++ (>75% Inhibition ≦100)”.
Regarding `COC(=O)C(CC(C)C)NC(=O)c1cc(-c2ccc(NC(=O)NCc3ccccc3)cc2)no1` (stereo not drawn) [Example 109, Methyl 2-(3-(4-(3-benzylureido)phenyl)isoxazole-5-carboxamido)-4-methylpentanoate], the inhibition at 10 µM was 0 to 50%.
Same read-out and setting: the result for `COC(=O)[C@@H](NC(=O)c1onc(-c2ccc(NC(=O)Nc3ccccc3)cc2)c1-c1ccccc1)C(C)C` [Example 88, (S)-3-Methyl-2-({4-phenyl-3-[4-(3-phenyl-ureido)-phenyl]-isoxazole-5-carbonyl}-amino)-butyric acid methyl ester] reads 0 to 50%.
In the case of `COC(=O)[C@@H](NC(=O)c1cc(-c2cccc(Nc3nc4ccc(F)cc4s3)c2)no1)C(C)C` [Example 22, (S)-2-({3-[3-(6-Fluoro-benzothiazol-2-ylamino)-phenyl]-isoxazole-5-carbonyl}-amino)-3-methyl-butyric acid methyl ester], the inhibition at 10 µM was in the range of 0 to 50%.
Still for that read-out and setting: the result for `COC[C@H](NC(=NO)c1cc(-c2cccc(Nc3nc4ccc(F)cc4s3)c2)no1)C(=O)O` [Example 33, (S)-2-({3-[3-(6-Fluoro-benzothiazol-2-ylamino)-phenyl]-N-hydroxy-isoxazole-5-carboximidoyl}-amino)-3-methoxy-propionic acid] reads 0 to 50%.
With `COC(=O)[C@@H](NC(=S)c1c(-c2ccc(Nc3nc4ccc(F)cc4s3)cc2)noc1-c1ccccc1)C(C)C` [Example 72, (S)-2-({3-[4-(6-Fluoro-benzothiazol-2-ylamino)-phenyl]-5-phenyl-isoxazole-4-carbothioyl}-amino)-3-methyl-butyric acid methyl ester], the inhibition at 10 µM fell in the range of 0 to 50%.
On the same count and under the same terms, the result for `CC(C)[C@H](NC(=NO)c1cc(-c2ccc(Nc3nc4ccc(F)cc4s3)cc2)no1)C(=O)O` [Example 8, (S)-2-({3-[4-(6-Fluoro-benzothiazol-2-ylamino)-phenyl]-N-hydroxy-isoxazole-5-carboximidoyl}-amino)-3-methyl-butyric acid] reads 50 to 75%.
As to `CC(C)[C@H](NC(=S)c1cc(-c2ccc(Nc3nc4ccc(F)cc4s3)cc2)no1)C(=O)O` [Example 45, (S)-2-({3-[4-(6-Fluoro-benzothiazol-2-ylamino)-phenyl]-isoxazole-5-carbothioyl}-amino)-3-methyl-butyric acid], the inhibition at 10 µM was in the range of 50 to 75%.
On the same count and under the same terms, under `COC(=O)[C@H](CC(C)C)NC(=O)c1onc(-c2ccc(NC(=O)Nc3ccccc3)cc2)c1-c1ccccc1` [Example 90, (S)-4-Methyl-2-({4-phenyl-3-[4-(3-phenyl-ureido)-phenyl]-isoxazole-5-carbonyl}-amino)-pentanoic acid methyl ester] stands 0 to 50%.
Same read-out and setting: under `O=C(O)[C@@H](NC(=NO)c1cc(-c2ccc(Nc3nc4ccc(F)cc4s3)cc2)no1)c1ccccc1` [Example 57, (S)-({3-[4-(6-Fluoro-benzothiazol-2-ylamino)-phenyl]-N-hydroxy-isoxazole-5-carboximidoyl}-amino)-phenyl-acetic acid] stands 0 to 50%.
`O=C(O)CNC(=S)c1cc(-c2ccc(Nc3nc4ccc(F)cc4s3)cc2)no1` [Example 61, ({3-[4-(6-fluoro-benzothiazol-2-ylamino)-phenyl]-isoxazole-5-carbothioyl}-amino)-acetic acid]: the inhibition at 10 µM fell in the range of 0 to 50%.
`COC(=O)[C@@H](NC(=NO)c1cc(-c2ccc(Nc3nc4ccc(F)cc4s3)cc2)no1)C(C)C` [Example 7, (S)-2-({3-[4-(6-Fluoro-benzothiazol-2-ylamino)-phenyl]-N-hydroxy-isoxazole-5-carboximidoyl}-amino)-3-methyl-butyric acid methyl ester] yielded an inhibition at 10 µM of 50 to 75%.
Still for that read-out and setting: under `COC(=O)[C@H](CC(C)C)NC(=O)c1cc(-c2ccc(NC(=O)Nc3ccc(F)cc3)cc2)no1` [Example 86, (S)-2-[(3-{4-[3-(4-Fluoro-phenyl)-ureido]-phenyl}-isoxazole-5-carbonyl)-amino]-4-methyl-pentanoic acid methyl ester] stands 0 to 50%; under `COC(=O)C(C)(C)NC(=O)c1cc(-c2ccc(NC(=O)Nc3ccccc3)cc2)no1` [Example 121, Methyl 2-methyl-2-(3-(4-(3-phenylureido)phenyl)isoxazole-5-carboxamido)propanoate], 50 to 75%.
